Where two headings read alike, the source gives them in different places.
Columns and labels:
[1] = system: Male ICR mice; test: Catalepsy ring test; format: in vivo, mouse; conditions: for % catalepsy @ 30 mg/kg: 30 mg/kg i.p.; for % catalepsy @ 30 mg/kg / % catalepsy @ 100 mg/kg: 60 or 90 minutes after dosing; for % catalepsy @ 100 mg/kg: 100 mg/kg i.p.
Experimental: The apparatus consisted of a 5.5 centimeter ring attached to a ring stand at a height of 16 centimeters. Male ICR mice (20-25 g) were placed on the ring 60 or 90 minutes after dosing (i.p.) with test compounds or vehicle. Normal behavior for a mouse would be to walk around and investigate the ring. Catalepsy was shown when the mouse remained motionless. The amount of time (in seconds, in a 5 minute test session) the mouse spent motionless was determined.
Mice that fell or jumped were allowed 5 “escapes”. If 5 “escapes” happened before 2.5 minutes into the test, the data were disregarded. The immobility index (% catalepsy) was determined by the amount of time spent immobile divided by the length of the test (P. Little et al. Pharmac. Biochem. & Behavior 1989, 32, 661-666). Since the CB1 receptor is thought to be responsible for psychoactivity, the catalepsy ring test is an excellent in vivo screen for CB1 activity.

[2] = molecular target: T1, hCB1 (Homo sapiens, UniProt P21554); test: hCB1-mediated stimulation of [35S]GTPγS binding; format: biochemical; conditions: read-out: in vitro CB1 receptor agonist potency (EC50)
T1 construct: expressed in transfected cells; host or cells: CHO-K1 (Chinese hamster ovary), stably transfected; membrane preparation
T1 sequence (P21554 whole entry): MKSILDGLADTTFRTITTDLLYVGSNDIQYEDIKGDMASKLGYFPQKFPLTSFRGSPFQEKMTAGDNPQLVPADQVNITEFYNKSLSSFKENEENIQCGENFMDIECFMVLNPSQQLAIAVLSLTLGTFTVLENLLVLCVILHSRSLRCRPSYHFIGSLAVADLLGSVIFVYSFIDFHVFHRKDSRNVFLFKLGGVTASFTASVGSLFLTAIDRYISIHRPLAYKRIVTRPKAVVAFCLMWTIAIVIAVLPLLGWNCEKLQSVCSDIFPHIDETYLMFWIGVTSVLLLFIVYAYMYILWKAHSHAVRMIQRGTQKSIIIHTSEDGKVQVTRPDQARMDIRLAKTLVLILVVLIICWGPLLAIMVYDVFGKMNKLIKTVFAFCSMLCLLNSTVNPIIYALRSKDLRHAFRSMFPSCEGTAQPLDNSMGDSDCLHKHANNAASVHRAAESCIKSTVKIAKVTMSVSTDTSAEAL
Experimental: (§1) Chinese hamster ovary cells (CHO-K1), stably transfected with either hCB1 or hCB2, were washed two times with cold PBS, scraped from 500 cm^2 tissue culture plates, and pelleted by centrifugation at 1000×g for 10 min. The supernatant was discarded and the pellet was re-suspended in Tris assay buffer (50 mM Tris HCl, pH 7.8, containing 1.0 mM EGTA, 5.0 mM MgCl2, 10 μg/mL leupeptin, 10 μg/mL pepstatin A, 200 μg/mL bacitracin, and 0.5 μg/mL aprotinin), homogenized with a Polytron homogenizer (Brinkmann) at a setting of 1 for 20 sec and centrifuged at 38,000×g for 20 min at 4° C. The pellet was re-suspended in Tris assay buffer and aliquots of 1 mg protein/mL were stored at −80° C. for further use.
hCB1-mediated stimulation of [^35S]GTPγS binding was measured in a mixture containing 100-150 pM [^35S]GTPγS, 150 mM NaCl, […], 0.4 mM DTT, 1 mM EGTA, 1 mg/mL fatty acid free BSA, 25 μg of membrane protein and agonist in a total volume of 250 μL of buffer A in 96 well Basic Flashplates (Perkin Elmer). After incubation at room temperature for 2 hours the plates were centrifuged at 800×g at 4° C. for 5 min and the radioactivity bound to the membranes was determined by scintillation spectrometry using the Topcount (Perkin Elmer). […]

[3] = molecular target: T2, hCB2 (Homo sapiens, UniProt P34972); test: hCB2-mediated stimulation of [35S]GTPγS binding; format: biochemical; conditions: read-out: in vitro CB2 receptor agonist potency (EC50)
T2 construct: expressed in transfected cells; host or cells: CHO-K1 (Chinese hamster ovary), stably transfected; membrane preparation
T2 sequence (P34972 whole entry): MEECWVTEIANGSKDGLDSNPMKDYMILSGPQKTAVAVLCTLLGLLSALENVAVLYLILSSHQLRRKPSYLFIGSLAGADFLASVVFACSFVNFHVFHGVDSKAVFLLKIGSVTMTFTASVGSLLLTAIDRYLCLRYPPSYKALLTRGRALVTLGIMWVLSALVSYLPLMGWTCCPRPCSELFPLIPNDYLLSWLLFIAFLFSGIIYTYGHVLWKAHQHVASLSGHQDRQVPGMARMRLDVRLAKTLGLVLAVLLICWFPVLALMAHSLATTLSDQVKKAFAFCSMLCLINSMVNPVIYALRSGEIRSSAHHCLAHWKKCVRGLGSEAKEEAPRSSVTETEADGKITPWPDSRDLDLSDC
Experimental: hCB2-mediated [^35S]GTPγS binding was measured in the same way except the assay mixture contained 10 mM GDP and the incubation time was 6 hours. […] After incubation at 30° C. for 2 hours, the plates were centrifuged at 800×g at 4° C. for 5 min and the radioactivity bound to the membrane was determined by scintillation spectrometry using the Topcount (Perkin Elmer).
EC50 values in functional assays were also derived from automated nonlinear regression analysis of sigmoidal titration curves using the three-parameter modification of the four-parameter equation.

[4] = molecular target: T2, hCB2; test: Inhibition of [3H]CP55940 binding to hCB2 receptor membranes
[5] = molecular target: T1, hCB1; test: Inhibition of [3H]CP55940 binding to hCB1 receptor membranes; conditions: human cloned CB1 receptor
Experimental: as §1
Binding assays were performed by incubating 0.2-0.6 nM (34,000-100,000 dpm) of [^3H]CP55940 with membranes prepared from cells expressing cloned human CB1 or CB2 receptors in buffer A (50 mM Tris HCl, pH 7.0, 5.0 mM MgCl2, 1.0 mM EGTA and 1.0 mg/mL fatty acid free bovine serum albumin). […] The filters were rinsed 6 times with one mL of cold wash buffer (50 mM Tris HCl, pH 7.0, 5.0 mM MgCl2, 1.0 mM EGTA and 0.75 mg/mL fatty acid free bovine serum albumin), 30 μL of MicroScint 20 was added to each filter and the radioactivity on the filters determined by scintillation spectroscopy. Nonspecific binding was determined in the presence of 10 μM WIN55212-2. […]

[6] = system: Male Sprague-Dawley rats; test: Neuropathic pain assay: L5 spinal nerve ligation, tactile sensitivity (von Frey); format: in vivo, rat; conditions: L5 SNL rats
Experimental: Male Sprague-Dawley rats (120-250 g, Harlan Laboratories, Columbus, Ohio) were housed in pairs and allowed free access to food and water throughout the study. Room temperature and humidity were maintained at 21° C. and 70%, respectively. Nerve injury was produced with tight ligation of the left L5 spinal nerve (Kim and Chung, 1992; LaBuda and Fuchs, 2000a, 2000b, LaBuda, Donahue and Fuchs, 2001). Briefly, animals were placed in the prone position to access the left L4-L6 spinal nerves. Under magnification, approximately one third of the L6 transverse process was removed. The L5 spinal nerve was identified and carefully dissected free from the adjacent L4 spinal nerve and then tightly ligated using 6-0 silk suture. The wound was treated with an antiseptic solution, the muscle layer was sutured, and the wound was closed with wound clips. Sham-operated surgical controls were prepared in the same manner, but the L5 spinal nerve was not […]. All housing conditions and experimental procedures were performed in accordance with the ethical guidelines of the IASP and the Adolor Corporation Animal Care and Use Committee.
Seven to ten animals per group were used for all behavioral assays. After a 7-10 day post-surgical recovery, animals were tested for baseline sensitivity to tactile stimulation of both hindpaws. Allodynic animals were defined as animals having a threshold of less than 7.5 grams of pressure applied to the injured hindpaw. Tactile sensitivity was evaluated using von Frey monofilaments before and after treatment. […] Thirty minutes after treatment, tactile sensitivity was evaluated. Five to seven days later, animals were tested using a different compound. Each animal was tested three times with different compounds. All behavioral testing was performed between 9:00 AM and 5:00 PM in a well-illuminated room with white background noise.
Animals were placed in a Plexiglas chamber (20 cm×10.5 cm×40.5 cm) and habituated for 15 minutes. The chamber was positioned on top of a mesh screen so that von Frey monofilaments could be presented to the plantar surfaces of both hindpaws. Measurements of tactile sensitivity for each hindpaw were obtained using the up/down method (Dixon, 1980) with seven von Frey monofilaments (0.04, 0.07, 0.16, 0.4, 1, 6, and 15 grams). Each trial started with a von Frey force of 0.4 g delivered to the right hindpaw and then the left hindpaw for approximately 1-2 sec each. If there was no withdrawal response, the next higher force was delivered. If there was a response, the next lower force was delivered. This procedure was performed until no response was made at the highest force (15 grams) or until four stimuli were administered following the initial response. The 50% paw withdrawal threshold for each paw was calculated using the following formula: [Xth]log=[vFr]log+ky where [vFr] is the force of the last von Frey filament used, k=0.2249 which is the average interval (in log units) between the von Frey monofilaments, and y is a value that depends upon the pattern of withdrawal responses (Dixon, 1980). […] Testing for tactile sensitivity was performed twice and the mean 50% withdrawal value assigned as the tactile sensitivity for the right and left paws for each animal.
Tactile sensitivity for both hindpaws before and after treatments were analyzed using one-way analysis of variance (ANOVA) followed by post-hoc comparisons (protected t-test) for group differences. An alpha level of 0.05 was used for all analyses.

[7] = Table 3, 10 mg/kg, n = 7-8/group
[8] = Table 3, 2.5 mg/kg i.p., n = 7-8/group

CCNC(=O)NCc1cccc(-c2ccc(C(C)(C)COCCC(=O)N3CCOCC3)cc2O)c1 [Compound 11, 1-{4′-[1,1-Dimethyl-2-(3-morpholin-4-yl-3-oxo-propoxy)-ethyl]-2′-hydroxy-biphenyl-3-yl-methyl}-3-ethyl-urea]
% catalepsy @ 30 mg/kg [1]: 6.65 ± 1.87% | % catalepsy @ 100 mg/kg [1]: 18.80 ± 3.33%

CCCCOCC(C)(C)c1ccc(-c2ccccc2CNC(=O)NCC)c(O)c1 [Compound 12, 1-[4′-(2-Butoxy-1,1-dimethyl-ethyl)-2′-hydroxy-biphenyl-2-ylmethyl]-3-ethyl-urea]
EC50 [2]: 15.5 nM | EC50 [3]: 15.2 nM | Ki ([4]; human cloned CB2 receptor, read-out: Ki(CB2)): 0.56 nM | Ki [5]: 1.6 nM

CCCCOCC(C)(C)c1ccc(-c2cccc(CNC(=O)NCCC)c2)c(O)c1 [Compound 15, 1-[4′-(2-Butoxy-1,1-dimethyl-ethyl)-2′-hydroxy-biphenyl-3-ylmethyl]-3-propyl-urea]
EC50 [2]: 29.1 nM | EC50 [3]: 5.1 nM | Ki [4]: 0.4 nM | Ki [5]: 1.1 nM

CCNC(=O)NCc1cccc(-c2ccc(C(C)(C)COCCOC)cc2O)c1 [Compound 17, 1-Ethyl-3-{2′-hydroxy-4′-[2-(2-methoxy-ethoxy)-1,1-dimethyl-ethyl]-biphenyl-3-ylmethyl}-urea]
% catalepsy @ 30 mg/kg [1]: 12.21 ± 2.79% | % catalepsy @ 100 mg/kg [1]: 47.93 ± 5.98%

CCNC(=O)NCc1cccc(-c2ccc(C(C)(C)CCCCC(=O)N3CCOCC3)cc2O)c1 [Compound 20, 1-[4′-(1,1-Dimethyl-6-morpholin-4-yl-6-oxo-hexyl)-2′-hydroxy-biphenyl-3-yl-methyl]-3-ethyl-urea]
% catalepsy @ 30 mg/kg [1]: 3.07 ± 1.15% | % catalepsy @ 100 mg/kg [1]: 5.05 ± 1.81% | Threshold ([6]; Table 2, 10 mg/kg i.p., n = 8): 12.16 ± 2.41 g | Threshold ([6]; Table 2, 30 mg/kg i.p., n = 8): 12.02 ± 2.54 g | Threshold ([6]; Table 3, 3 mg/kg, n = 7-8/group): 9.14 ± 3.36 g | Threshold [6, 7]: 16.69 ± 1.19 g

CCNC(=O)NCc1cccc(-c2ccc(C(C)(C)CCCNC(=O)C(C)(C)C)cc2O)c1 [Compound 35, N-(4-{3′-[(3-Ethyl-ureido)-methyl]-2-hydroxy-biphenyl-4-yl}-4-methyl-pentyl)-2,2-dimethyl-propionamide]
Threshold [6, 7]: 10.96 ± 2.66 g

CC(C)(CCCCC(=O)N1CCOCC1)c1ccc(-c2cccc(CNC(=O)C3CCCO3)c2)c(O)c1 (centres unmarked) [Compound 41, Tetrahydrofuran-2-carboxylic acid [4′-(1,1-dimethyl-6-morpholin-4-yl-6-oxo-hexyl)-2′-hydroxy-biphenyl-3-ylmethyl]-amide]
% catalepsy @ 30 mg/kg [1]: 13.07 ± 2.85% | % catalepsy @ 100 mg/kg [1]: 58.78 ± 7.95%

CC(C)(CCCCC(=O)N1CCOCC1)c1ccc(-c2cccc(CNS(C)(=O)=O)c2)c(O)c1 [Compound 71]
% catalepsy @ 30 mg/kg [1]: 3.38 ± 2.75% | % catalepsy @ 100 mg/kg [1]: 24.65 ± 3.36%

Cc1c(C(=O)c2cccc3ccccc23)c2cccc3c2n1[C@H](CN1CCOCC1)CO3 [WIN+, WIN55,212-2, reference compound]
% catalepsy ([1]; WIN @ 10 mg/kg i.p.): 51.64 ± 2.69% | Threshold [6, 8]: 15.03 ± 1.70 g

Cc1c(C(=O)c2cccc3ccccc23)c2cccc3c2n1[C@@H](CN1CCOCC1)CO3 [WIN−, WIN55,212-3, reference compound]
Threshold [6, 8]: 6.25 ± 1.19 g

From US7671052B2 (priority 2004, dated 2010)
